Each structure is given as a SMILES string.

Data on seven compounds can be found in US20050065195A1, “Oxadiazolyl-biphenylcarboxamides and their use as p38 kinase inhibitors” (priority 2001, published 2005).

Usually melting point stands for the temperature of the solid-liquid transition. The compound `COc1ccc(C(=O)Nc2ccc(-c3ccc(-c4nc(C)no4)cc3C)cc2)cc1CCCN(C)C` [Example 71, 3-[3-(Dimethylamino)propyl]-4-methoxy-N-[2′-methyl-4′-(3-methyl-1,2,4-oxadiazol-5-yl)[1,1′-biphenyl]-4-yl]benzamide] registered a melting point of 166 to 167 °C.
The same measure for `COc1ccc(C(=O)Nc2ccc(-c3ccc(CO)c(O)c3)cc2)cc1CCCN(C)C` [Example 20(b), 3-[3-(Dimethylamino)propyl]-N-[3′-hydroxy-4′-(hydroxymethyl)[1,1′-biphenyl]-4-yl]-4-methoxybenzamide]: 171 to 173 °C.
The same measure for `CCc1ccc(-c2ccc(NC(=O)c3ccc(OC)c(CCCN(C)C)c3)cc2)cc1` [Example 6, 3-[3-(Dimethylamino)propyl]-N-(4′-ethyl[1,1′-biphenyl]-4-yl)-4-methoxybenzamide]: 200 to 202 °C; for `COc1ccc(C(=O)Nc2ccc(-c3ccc(CO)cc3C)c(C)c2)cc1CCCN(C)C` [Example 41, 3-[3-(Dimethylamino)propyl]-N-[4′-(hydroxymethyl)-2,2′-dimethyl[1,1′-biphenyl]-4-yl]-4-methoxybenzamide]: 68 to 70 °C; for `COc1ccc(C(=O)Nc2ccc(-c3ccc(C(C)=O)cc3)cc2)cc1CCN(C)C` [1(b), N-(4′-Acetyl[1,1′-biphenyl]-4-yl)-3-[2-(dimethylamino)ethyl]-4-methoxybenzamide]: 236 to 240 °C.
The same measure for `COc1ccc(C(=O)Nc2ccc(-c3ccc(C(C)=O)cc3)c(C)c2)cc1CCCN(C)C.Cl`: 264 to 266 °C; for `COc1ccc(C(=O)Nc2ccc(-c3ccccc3C(C)O)cc2)cc1CCCN(C)C.Cl` (stereo not shown): 224 to 227 °C.
